According to US6335466B1, “Fluorinated amino polyhedral borate compounds” (Colorado State University Research Foundation, priority 2000, dated 2002):
Values joined by “and” are separate entries in the source; they are usually repeats but may differ in a detail not shown here. Equal values may be shown once.

Tests used:
[1] = Olefin polymerization catalyst activator test; conditions: 20 μmole Zr, Zr/A/Al 1/4/250, MAO; listed as C
Excerpt: All solvents used in synthesis and polymerization experiments were obtained when possible as anhydrous grade and further purified as described below. Diethyl ether, hexanes and toluene were obtained from Aldrich Chemical Company (Milwaukee, Wis.) in Sure Seal® bottles as anhydrous grade. Solvents were further purified by passing through columns packed with activated A2 alumina and Q-5 catalyst which had been reduced tbennally under hydrogen. Methylliium in aiethyl ether, zirconecene dichloride, pentamethylcyclopentadienyl zirconium dichloride and methylaluminoxane (10 wt. % in toluene) were obtained from Aldrich Chemical Company and used without further purification. Methyllithium was titrated with an aqueous HCl standard (Aldrich Chemical Company) against a phenolphthalein indicator in order to determine the concentration prior to use. Tris(perfluorophenyl)borate (i.e., B2 borate) was obtained as a research sample from Albermarle (Baton Rouge, La.) (Lot # 29779501-10) and used without further purification.
The solvent for polymerization experiments was 2,2,4-trimethylpentane (i.e., iso-octane) which was obtained from Aldrich Chemical Company in 18 L Stainless Steel Kilo Lab® Cylinders as anhydrous grade. The polymerization solvent was further purified by passing through columns packed with activated 13× molecular sieves and Q-5 catalyst. Periodic checks were performed on the water content of the solvent by Karl Fischer Columbmetric Titration and determined to contain 3 ppm or less water after purification. Solids were stored, weighed and transferred in glove box equipped with a catalyst train under dry nitrogen. Polymerization stock solutions and compositions were prepared in septum fitted bottles in a glove box. All solutions were freshly prepared for each set of evaluations.
All solutions were prepared in a glove box under dry nitrogen in a glass narrow mouth bottle fitted with a septum. This solution was prepared by the dissolution of 63 mg of Cp2ZrMe2 in 50 mL of dry, nitrogen degassed toluene. The complex was completely miscible in the solvent. […]

[2] = comparison species; cited from earlier work
[3] = Conductivity of glyme (DME) solutions; format: physicochemical
Excerpt: A calibrated Yellow Springs model 3403 conductivity cell (cell constant k=1.113) and a model 31 conductivity bridge were employed. The measurements were made in a nitrogen-filled glove box. […] The concentration dependence of the conductivity of a lithium salt in a dilute solution is expected to be linear. The conductivity of a 0.01 M glyme solution of LiB12F11NMe3 is therefore expected to be about 78 μS cm^−1. The conductivity of a 0.0050 M glyme solution LiB12F11NMe3 is approximately ten times higher than the conductivity of a 0.010 M glyme solution of lithium triflate (4 μS cm−1).
The conductivities of solutions of Li(Dd3NB12F11) and Li(Bn2HNB12F11) (the latter sample was contaminated with about 15% Li(BnH2NB12F11)) were measured using a similar procedure as that of Example 25. A calibrated Yellow Springs model 3403 conductivity cell (cell constant k=0.98 cm−1) and a Yellow Springs model 31 conductivity bridge was employed. The measurements were made in a nitrogen-filled glove box. The conductivities of glyme solutions of Li(Dd3NB12F11), Li(Bn2HNB12F11), and lithium salts of related anions are listed in Table 2.

[4] = Solubility in organic solvents and water; format: physicochemical
[5] = lithium salts, 0.0100 M DME solutions, 25° C., nitrogen atm.

In the case of Fc1c(F)c(F)c(OB(Oc2c(F)c(F)c(F)c(F)c2F)Oc2c(F)c(F)c(F)c(F)c2F)c(F)c1F [B2 borate, Tris(perfluorophenyl)borate], the “Final Rate C2H4 uptake” value [1] is reported as 0.7 g/m and 0.9 g/m and 1.3 g/m and 0.8 g/m, the “Max Exotherm” value [1] is reported as 1 °C and 2 °C and the “Max Rate C2H4 uptake” value [1] is reported as 26.3 g/m and 21.7 g/m and 16.3 g/m and 24.9 g/m and 31.3 g/m.

For S [HS^−1], the “pKa value of selected acids” value [2] is listed as 19.0.

F[P-](F)(F)(F)(F)F.[Li+] [LiPF6] gave a conductivity [3, 5] of 73 μS cm−1.

For CCCCN [NH3Bu^+1], the “pKa value of selected acids” value [2] is given as 10.8.

In the case of CN [NH3Me^+1], the “pKa value of selected acids” value [2] is given as 10.7.

For CCCC[N+](CCCC)(CCCC)CCCC.F[B-](F)(F)F [[NBu4][BF4]], the “solubility in water relative to [NBu4][H3NB12F11]” value [4] was “higher solubility”.

With O=S(=O)([O-])C(F)(F)F.[Li+] [lithium triflate] the conductivity ([3]; 0.010 M glyme solution) was 4 μS cm^−1 and the conductivity [3, 5] was 4 μS cm−1.
